The values below come from patent US5854240A, “Methylene blue for the treatment or prophylaxis of encephalopathy caused by ifosfamide” (Newcastle University Ventures Limited, priority 1993, dated 1998).

Data set [1] in a line: CNS toxicity/encephalopathy in patients on ifosfamide without methylene blue. Type of data set: in vivo, human. As for the experimental part:
(§1) A patient diagnosed with advanced metastatic osteosarcoma began a five day chemotherapy regime. Treatment consisted of a total dosage of 12 g/m^2 ifosfamide with 80% (by weight, based on the weight of ifosfamide) mesna and adriamycin (65 mg/m^2) divided into two doses. They also received ZOFRAN™ brand ondansetron (antiemetic), 8 mg, by intravenous injection and 200 mg pyritinol three times per day orally. All parenteral medicaments were given in a total of 2 liters 5% glucose solution.
(§2) In 1990, a patient with metastatic leiomyosarcoma was treated for lung metastases with ifosfamide, adriamycin and dacarbazine. They had three cycles of therapy at the time.
(§3) In the second and third cycles, their dose of ifosfamide was 2 g/m^2 for three days.
(§4) At the request of the inventors, an independent clinical analysis was performed at the Northern Centre for Cancer Treatment, Newcastle Upon Tyne, United Kingdom, on a patient using a combintation of ifosfamide and methylene blue. A patient was diagnosed with adenocarcinoma of the oesophagus. They began chemotherapeutic treatment and was administered ifosfamide, Mitomycin C, and cisplatin. […] The patient eventually recovered. Upon administration of a third cycle of treatment, the patient was also given a prophylactic dosage of methylene blue.

The next data set relates to metastatic osteosarcoma. In words: Tumour response to chemotherapy, osteosarcoma patient. Type of data set: in vivo, human. The following applies: Example 2; ifosfamide/adriamycin chemotherapy with methylene blue prophylaxis. As for the experimental part:
as §1
(§5) After three weeks from the end of the first cycle, the patient who was the subject of Example 1 again was given the same chemotherapeutic regime, except that this time they received 50 mg oral capsules of methylene blue prophylactically three times a day for the full course of treatment.

For data set [2], the system named is metastatic leiomyosarcoma. Nature of the data set: Tumour response to chemotherapy, leiomyosarcoma patient. The data set is classed as in vivo, human. The note with it: Example 3; 1990, ifosfamide, adriamycin and dacarbazine, three cycles. As for the experimental part: as §2, §3
Data set [3] deals with non small cell lung cancer. In words: Tumour response to chemotherapy, non small cell lung cancer patients. The data set is classed as in vivo, human. The note with it: Example 4; ifosfamide, VP-16, methylene blue; four cycles. The protocol:
(§6) A patient was diagnosed with non small cell lung cancer. They later developed brain, lung and mediastinal and bone metastases. The course of treatment included surgery, irradiation of the brain and chemotherapy. Dosage amounts for chemotherapy were as follows: ifosfamide (1 g/m^2) given intravenously for days 1-3; mesna 60% of intravenous ifosfamide dosage plus 800 mg orally twice daily for days 1-3; VP-16 (100 mg) given orally for days 1-8 and methylene blue (50 mg) was administered orally as a loading dose on day 1, with 3×50 mg administered orally on days 1-4.
(§7) A patient was diagnosed with non small cell lung cancer with extensive mediastinal lymphnode metastases. They were originally prescribed a course of cisplatinum, VP-16 and velbe. […] Oral ifosfamide, VP-16, and methylene blue was then ordered, using the same dosage requirements as described in Example 4 above.

A further data set relates to small cell lung cancer. Nature of the data set: Tumour response to chemotherapy, small cell lung cancer patients. Type of data set: in vivo, human. The text has this: (§8) They received six cycles of ifosfamide treatment using the identical dosage requirements as in Example 4.
(§9) A patient was diagnosed with extensive small cell lung cancer with pleural effusion. Patient was prescribed ifosfamide/Vp-16/methylene blue treatment.

Data set [4] can be described thus: Nitrobenzyl pyridine (NBP) test of urine for alkylating metabolites of ifosfamide. The data set is classed as in vivo, human.
A short description of data set [5]: GCMS analysis of urine of patient receiving ifosfamide and methylene blue. The data set is classed as in vivo, human. As for the experimental part: 100 ml of urine from a patient having had received methylene blue (300 mg/day) and ifosfamide (3 mg/kg daily) was analysed. The urine was refluxed for 30 minutes with 2M hydrochloric acid in ethanol (50 ml). After sufficient heating, 50 mls each of H2 O and […] hexane were added, the mixture shaken. The organic phase was then reduced to dryness in vacuo on a rotary evaporator. The dry residue was reconstituted in 1M hexane (10 ml) and 1 μl aliquots were submitted to gas chromatography-mass spectrometry analysis (GCMS). A 16 meter OV-17 capillary column was used with a temperature programme set for 40° C. for 1 minute, 5° C. per minute gradient to 250° C. and 250° C. for 10 minutes. Electron impact mass spectra were obtained on the resulting chromatographic peaks of interest (See A, B, and C of FIG. 1). These peaks were analysed through a Fisons Autospec Q MASS LIB GCMS computer library of mass spectra developed by the Department of Organic Chemistry, University of Berne, Switzerland of known organic compounds (FIGS. 2-4).

The conditions of data set [6]: intravenous ifosfamide; Martindale, 28th Edition, 1982; cited from earlier work.
The test system of a further data set is plasma amine oxidase. In words: Inhibition of plasma amine oxidase (2-chlorethylamine oxidation to chloracetaldehyde, GC). The following applies: methylene blue 50 μM; 2-chlorethylamine 100 μg/ml; human or bovine plasma, 36° C., 1 hour. Type of data set: biochemical. The protocol:
Human or bovine plasma (2.0 ml) containing 2-chlorethylamine (100 μg/ml) was incubated in a shaking water bath at 36° C. for 1 hour. Aliquots (5 μl) were directly injected in to a Tenax packed gas chromatographic column maintained at 120° C. in a Perkin Elmer 3920B gas chromatograph. The product of 2-chlorethylamine oxidation by plasma amine oxidase, 2-chloracetaldehyde, was eluted at 9 minutes retention time. External calibration curves were used to determine concentrations of resulting chloracetaldehyde. […] The methylene blue is thus able to reduce the formation of chloracetaldehyde from 2-chlorethylamine by the plasma to 20% of that observed in the absence of methylene blue.

Data set [7] is described as follows: Therapeutic rescue of ifosfamide encephalopathy with methylene blue in a patient. Type of data set: in vivo, human. The following applies: Example 1. As for the experimental part:
as §1
50 mg methylene blue, formulated at 2% w/v in water for injections, was administered by slow intravenous injection.
About 4 hours later, the 50 mg methylene blue dose was repeated to consolidate the earlier treatment.

The nature of data set [8]: Prophylaxis of ifosfamide encephalopathy with methylene blue in patients. The data set is classed as in vivo, human. As for the experimental part:
as §5
With the following treatment, they received four 50 mg doses of oral methylene blue. Their cytotoxic chemotherapy comprised three 3.2 g doses of ifosfamide (6 g/m^2 total dose) split over 3 days. The ifosfamide was administered as a continuous infusion with mesna. They also received 50 mg/m^2 adriamycin in two separate doses on days 2 and 3. Additionally,they received pyritinol (200 mg) twice per day on each day of the four day treatment.
as §6, §8, §7
A patient with non small cell lung cancer with involvment of the thoracic wall and retroperitoneal disease began one cycle of ifosfamide/methylene blue chemotherapy.
as §9, §4

The nature of data set [9]: Urinary excretion of pyritinol and its metabolites in patients. The data set is classed as in vivo, human. The text has this:
It is believed that pyritinol elevates intracellular thiol concentrations thereby detoxifying the chloroethyl metabolites formed by ifosfamide. Pyritinol is metabolised by reduction of its centralised disulfide bond, presumably by glutathione reductase or a similar enzyme using GSH as its cofactor. Pyritinol is also known to be metabolised by S-methylation and S-oxidation into the following metabolites: [drawing 12] These metabolites are the excretable forms of pyritinol in urine. In patients not receiving ifosfamide treatment, virtually 100% of pyritinol will be excreted in its metabolised form into the urine. […] As was previously mentioned, without GSH as a cofactor, glutathione reductase is unable to reduce pyritinol into its metabolised form. It is therefore a further aspect of this invention to use the excretion of unmetabolised pyritinol as a biochemical marker for the onset of encephalopathy upon administration of ifosfamide.

[10] abbreviates: Example 5, ifosfamide as in Example 4, six cycles.
The mark [11] stands for this setting: Example 3, ifosfamide + methylene blue, first cycle.

Values joined by “and” are separate entries in the source; they are usually repeats but may differ in a detail not shown here. Equal values may be shown once. “Also recorded” adds a separate entry of the source.

As for `O=P1(NCCCl)OCCCN1CCCl` (stereo not drawn) [ifosfamide, N,3-bis(2-chloroethyl)tetrahydro-2H-1,3,2-oxazaphosphorin-2-amine 2-oxide], the “signs of encephalopathy on ifosfamide” value in data set [1] (Example 1, 12 g/m^2 total ifosfamide, mesna, adriamycin, day three and next morning, before methylene blue) was “displayed signs of encephalopathy-type hallucinations; also recorded: still drowsy, disorientated and confused”. In addition, the encephalopathy on ifosfamide result is “mild encephalopatic signs (such as confusion and amnesia) short of psychosis” in [1] (Example 3, 1990, first cycle, ifosfamide, adriamycin and dacarbazine); “psychotic and somnolent” in data set [1] (Example 3, 1990, second cycle, ifosfamide 2 g/m^2 for three days); “severely psychotic and had hallucinations which continued not only after the end of the cycle but also after discharge from hospital” in data set [1] (Example 3, 1990, third cycle, ifosfamide 2 g/m^2 for three days); “developed ifosfamide encephalopathy, becoming drowsy and confused” in [1] (Example 9, ifosfamide, Mitomycin C and cisplatin, following second cycle). The “lung metastases (lung scan)” value in the data set with metastatic osteosarcoma was “lung metastases were almost gone”. The remission result in data set [2] was “complete remission of the lung metastases”; in the data set on small cell lung cancer (setting [10]) it was “good partial remission”; with small cell lung cancer (Example 8, ifosfamide/Vp-16/methylene blue, after six cycles), “partial remission of the lung, lymphnode and liver metastases”; in the data set on small cell lung cancer (Example 8, ifosfamide/Vp-16/methylene blue, after three cycles), “partial remission in the primary and lymphnode metastases”. Besides, in [3], the outcome is recorded as “died 6 months later due to tumour progression”. Besides, the “Lambert/Eaton Syndrome” value with small cell lung cancer (setting [10]) is recorded as “rapidly improved”. For the same compound, the “NBP test of urine for alkylating metabolites of ifosfamide” value in [4] (Example 1, first cycle) is “positive”. In addition, the “NBP test of urine for alkylating metabolites” value in [4] (Example 2, second cycle, with methylene blue) was “present”. For the same compound, in [5] (Example 10, methylene blue 300 mg/day and ifosfamide 3 mg/kg daily, urine refluxed with HCl in ethanol), the “urinary metabolites identified by GCMS” value was 2,2,2-trichlorethanal and 3-chloroproprionic acid ethyl ester and trichloracetic acid ethyl ester. In [5] (patients treated with both ifosfamide and methylene blue), the “novel urinary metabolites among patients treated with ifosfamide and methylene blue” value is 2,2,2-trichlorethanol and trichloracetic acid and 3-chlorproprionic acid. Also, in data set [6], the “patients experiencing CNS side effects, especially confusion and lethargy” value was “about 10%”.
Regarding `CN(C)c1ccc2nc3ccc(N(C)C)cc3[s+]c2c1.[Cl-]` [methylene blue, 3,7-bis(dimethylamino)phenothiazin-5-ium chloride], the “formation of chloracetaldehyde from 2-chlorethylamine by the plasma, relative to that in absence of methylene blue” value in the data set with plasma amine oxidase was 20%. In addition, the “inhibition of plasma amine oxidase by methylene blue” value with plasma amine oxidase worked out at 80%. In addition, in [7] (50 mg dose repeated about 4 hours later, next day), the “symptoms of encephalopathy next day” value is given as “no signs of confusion or other symptoms of encephalopathy”. Besides, the “malaise and nausea after methylene blue” value in data set [7] (50 mg slow intravenous injection, after 1 hour) is “The malaise and nausea which they had previously experienced were gone”. Further, the “patient's condition after methylene blue” value in [7] (50 mg slow intravenous injection, after 1 hour, continued ifosfamide infusion) was “much calmer, coherent and able to articulate the fearful nature of their hallucinations”. The “sleep/condition after repeated dose” value in [7] (second 50 mg dose, that night and next day) was “slept well and was much better the next day”. Further, the “disturbed nights during treatment” value in data set [8] (Example 2, 50 mg oral capsules three times a day prophylactically) is reported as “no disturbed nights”. Also, in data set [8] (Example 3, four 50 mg oral doses, ifosfamide 6 g/m^2 total over 3 days, mesna, adriamycin, pyritinol, first cycle), the “symptoms of encephalopathy during prophylactic treatment” value is recorded as “no symptoms of encephalopathy were recorded during treatment”. Also, the episodes of vomiting result in [8] (setting [11]) was “one”. The malaise entry in data set [8] (setting [11]) is listed as “no malaise”. Moreover, the “signs of encephalopathy during prophylactic treatment” value is “No signs of encephalopathy after four cycles” in data set [8] (Example 4, 50 mg oral loading dose day 1, 3×50 mg oral days 1-4, four cycles); “no signs of encephalopathy” in data set [8] (Example 5, dosage as in Example 4, six cycles); “Absolutely no signs of encephalopathy” in data set [8] (Example 6, oral ifosfamide, VP-16 and methylene blue, dosage as in Example 4, six cycles); “no further signs of encephalopathy” in data set [8] (Example 9, prophylactic methylene blue in third cycle, ifosfamide, Mitomycin C, cisplatin). In addition, the “CNS toxicity during prophylactic treatment” value in data set [8] (Example 7, dosage as in Example 4, one cycle) is “No CNS toxicity was exhibited”. Further, the “symptoms associated with encephalopathy during prophylactic treatment” value in data set [8] (Example 8, dosage as in Examples 4-7, six cycles) was “never developed the symptoms associated with encephalopathy”. In data set [8] (Example 9, third cycle), the “patient's condition during prophylactic treatment” value is “remained conscious and alert throughout treatment”.
For `Cc1ncc(CSSCc2cnc(C)c(O)c2CO)c(CO)c1O` [pyritinol], in [9] (ifosfamide plus methylene blue, leucomethylene blue or similar compound), the “form of pyritinol excreted in urine upon addition of methylene blue” value was “metabolised forms of pyritinol will subsequently be excreted in the urine”. In addition, the “form of pyritinol excreted in urine upon ifosfamide” value in data set [9] (upon administration of ifosfamide) was “solely in its unmetabolised non-reduced form”.
